Consider 1 molecule from patent publication US20080119508A1, “Multi-Route Administration Of Immune Response Modifier Compounds” (3M INNOVATIVE PROPERTIES COMPANY, priority 2004, published 2008).

This experiment relates to mouse colon carcinoma-26 cells (MC26) expressing luciferase. The experiment is described as follows: MC26-luciferase intradermal tumor model, in vivo photon counts (tumor growth index). Set-up: species or system Balb/c mice. The note with it: combination of topical 5% IRM1 (30 microliters at tumor site) and subcutaneous IRM1 10 mg/kg, compared with single routes and vehicles; day 6 results in FIG. 1.

Procedure: Mice were divided into five groups: topical vehicle, subcutaneous vehicle (SQ vehicle), IRM1 topical (topical IRM1), IRM1 subcutaneous (SQ IRM1), and IRM1 topical and subcutaneous (topical+SQ IRM1). Eighteen hours after injection of the cells, 30 microliters of vehicle or 5% IRM1 topical formulations, described in Table 3, was applied to the tumor site. Six hours later, mice were injected subcutaneously with 10 millograms per kilogram of IRM1 in a 1 milligram per milliliter IRM1, 0.03M citrate buffered saline solution or a vehicle 0.03M citrate buffered saline solution. On days 1, 5, and 6 mice were anesthetized with vaporized 3% isoflurane and in vivo photon counts of luciferin were measured using a Xenogen IVIS imaging system (Alameda, Calif.) following the manufacturer's protocol. The tumor growth index for each treatment group was calculated by dividing each group's day 5 or day 6 tumor photon counts by their day 1 tumor photon counts.

On to `CCc1nc2c(N)nc3ccccc3c2n1CCCCNS(C)(=O)=O` [IRM1, N-[4-(4-amino-2-ethyl-1H-imidazo[4,5-c]quinolin-1-yl)butyl]methanesulfonamide], for which the “tumor growth index (day 5 or day 6 tumor photon counts divided by day 1 tumor photon counts)” value is “surprising benefit”.
